Measurements published in patent US6924306B2, “Method for treating ocular hypertension” (priority 2000, dated 2005).
Read-outs that look alike come from different tables or passages of the source.

Key:
[1] = target: T1, [125I]ChTX receptor in bovine aortic sarcolemma membrane vesicles (Bos taurus, UniProt Q28204); test: [125I]ChTX binding assay with sarcolemma membrane vesicles; details: for inhibition at 10 µM: read-out: inhibition of [125I]ChTX binding
T1 construct: bovine aortic sarcolemma membrane vesicles; from tissue; host or cells: bovine aortic sarcolemma membrane vesicles
T1 sequence (Q28204 whole entry): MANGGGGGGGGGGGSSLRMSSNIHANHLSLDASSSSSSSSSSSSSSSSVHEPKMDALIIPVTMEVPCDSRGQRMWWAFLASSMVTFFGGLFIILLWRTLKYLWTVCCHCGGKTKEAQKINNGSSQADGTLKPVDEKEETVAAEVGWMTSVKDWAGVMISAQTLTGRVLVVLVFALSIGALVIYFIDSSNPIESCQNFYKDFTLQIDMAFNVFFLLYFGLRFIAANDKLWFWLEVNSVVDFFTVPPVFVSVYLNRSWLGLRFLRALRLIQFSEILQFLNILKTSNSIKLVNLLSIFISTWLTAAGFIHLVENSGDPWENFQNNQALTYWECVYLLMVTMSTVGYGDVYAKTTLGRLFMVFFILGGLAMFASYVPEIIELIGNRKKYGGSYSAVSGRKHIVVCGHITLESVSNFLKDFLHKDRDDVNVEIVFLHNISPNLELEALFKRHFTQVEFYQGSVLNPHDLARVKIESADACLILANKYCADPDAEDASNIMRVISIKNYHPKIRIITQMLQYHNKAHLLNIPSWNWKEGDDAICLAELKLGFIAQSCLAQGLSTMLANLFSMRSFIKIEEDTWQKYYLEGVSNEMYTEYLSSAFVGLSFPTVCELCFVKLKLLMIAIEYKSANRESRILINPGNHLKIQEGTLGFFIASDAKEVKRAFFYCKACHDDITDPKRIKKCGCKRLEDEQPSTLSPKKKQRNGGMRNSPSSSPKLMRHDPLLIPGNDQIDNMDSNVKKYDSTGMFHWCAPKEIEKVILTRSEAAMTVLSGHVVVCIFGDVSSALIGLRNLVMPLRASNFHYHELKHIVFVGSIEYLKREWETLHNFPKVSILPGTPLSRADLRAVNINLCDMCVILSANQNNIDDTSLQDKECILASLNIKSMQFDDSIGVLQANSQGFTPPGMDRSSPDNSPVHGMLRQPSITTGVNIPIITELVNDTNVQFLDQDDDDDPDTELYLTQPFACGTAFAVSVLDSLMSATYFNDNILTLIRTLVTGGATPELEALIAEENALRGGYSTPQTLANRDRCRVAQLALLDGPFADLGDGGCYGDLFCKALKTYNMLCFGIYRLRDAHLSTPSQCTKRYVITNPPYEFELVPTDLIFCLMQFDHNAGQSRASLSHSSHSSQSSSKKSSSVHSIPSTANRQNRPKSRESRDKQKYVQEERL
T1 sequence (Q28067 whole entry partner): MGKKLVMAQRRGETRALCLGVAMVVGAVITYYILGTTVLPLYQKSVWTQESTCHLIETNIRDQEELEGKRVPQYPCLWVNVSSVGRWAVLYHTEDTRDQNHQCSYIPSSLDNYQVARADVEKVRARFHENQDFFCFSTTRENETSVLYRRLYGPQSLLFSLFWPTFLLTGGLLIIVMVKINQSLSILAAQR
Description: The interaction of [^125I]ChTX with bovine aortic sarcolemma membrane vesicles was determined under conditions as described (Vazquez et al., 1989, J. Biol. Chem. 264, 20902-20909). Briefly, sarcolemma membrane vesicles were incubated in 12×75 polystyrene tubes with ca. 25 pM [^125I]ChTX (2200 Ci/mmol), in the absence or presence of test compound, in a media consisting of 20 mM NaCl, 20 mM Tris-HCl pH 7.4, 0.1% bovine serum albumin, 0.1% digitonin. Nonspecific binding was determined in the presence of 10 nM ChTX. Incubations were carried out at room temperature until ligand binding equilibrium is achieved at ca. 90 min. At the end of the incubation period, samples were diluted with 4 mL ice-cold 100 mM NaCl, 20 mM Hepes-Tris pH 7.4 and filtered through GF/C glass fiber filters that have been presoaked in 0.5% polyethylenimine. Filters were rinsed twice with 4 mL ice-cold quench solution. Radioactivity associated with filters was determined in a gamma counter. Specific binding data in the presence of each compound (difference between total binding and nonspecific binding) was assessed relative to an untreated control.

[2] = target: T2, large-conductance calcium-activated potassium (maxi-K) channels from bovine aortic smooth muscle (Bos taurus, UniProt Q28204); test: Patch clamp recordings of maxi-K channel currents in excised inside-out membrane patches; assay type: biochemical; details: for block of channel activity / effect on channel open probability: 1 μM
T2 construct: membrane patches excised from cultured bovine aortic smooth muscle cells; endogenous in cells; host or cells: cultured bovine aortic smooth muscle cells
T2 sequence (Q28204 whole entry): as the sequence (Q28204 whole entry) above
T2 sequence (Q28067 whole entry partner): as the sequence (Q28067 whole entry partner) above
Description: Pipettes were typically filled with solutions containing (mM): 150 KCl, 10 Hepes (4-(2-hydroxyethyl)-1-piperazine […]), 1 Mg, 0.01 Ca, and adjusted to pH 7.20 with 3.7 mM KOH. After forming a high resistance (>10^9 ohms) seal between the sarcolemmal membrane and the pipette, the pipette was withdrawn from the cell, forming an excised inside-out membrane patch. […] An AXOPATCH 1C amplifier (Axon Instruments, Foster City, Calif.) with a CV-4 headstage was used to control the voltage and to measure the currents flowing across the membrane patch. The input to the headstage was connected to the pipette solution with a Ag/AgCl wire, and the amplifier ground was connected to the bath solution with a Ag/AgCl wire covered with a tube filled with agar dissolved in 0.2 M KCl. Maxi-K channels were identified by their large single channel conductance (˜250 pS) and sensitivity of channel open probability to membrane potential and intracellular calcium concentration.
Data were stored on a RACAL STORE 4DS FM tape recorder (Racal Recorders, Vienna, Va.) or on digital video tape using a video casette recorder after digitizing the signal with VR-10 (Instrutech Corp., Belmont, N.Y.) PCM video encoder. The signal was also recorded on chart paper with a GOULD 2400S chart recorder (Gould Inc., Cleveland, Ohio). For quantitative analysis, the data was played into a DEC 11-73 (Digital Equipment Corp., Maynard, Mass.) after digitization with a DT2782-8D1A analogue to digital converter (Data Translation Inc., Marlboro, Mass.), or played into a Mac IIx or Quadra 700 computer (Apple Computers) after digitization with an ITC-16 interface (Instrutech Corp., Belmont, N.Y.).

[3] = concentrations from 1 nM to 100 μM

CC(C)=CCOC(C)(C)[C@@H]1CC2OC23[C@H](CC[C@@]2(C)[C@H]3CC[C@H]3Cc4c([nH]c5ccccc45)[C@@]32C)O1 (stereo partly drawn) [Compound A]
inhibition at 10 µM [1]: 2%
IC50 [2]: ~100 nM
strength as blocker of maxi-K channels compared with Compound C [2]: weaker
block of maxi-K channels ([2]; 10 nM): blocked a small fraction of channel activity
block of channel activity ([2]; 100 nM): approximately one half
block of channel activity / effect on channel open probability [2]: nearly all

CC(C)(O)[C@@H]1CC(O)C2(C(=O)O)C(CC[C@@]3(C)[C@H]2CC[C@H]2Cc4c([nH]c5ccccc45)[C@@]23C)O1 (stereo partly drawn) [Compound D, hydroxypaspalinic acid]
effect on [125I]ChTX binding [1, 3]: did not have any effect
IC50 [2]: ~1000 nM
strength as blocker of maxi-K channels compared with Compound C [2]: weaker
reduction in channel open probability ([2]; 10 nM): < 50%
block of channel activity / effect on channel open probability [2]: complete block was not observed

COC(=O)C12C(O)C[C@@H](C(C)(C)O)OC1CC[C@@]1(C)[C@H]2CC[C@H]2Cc3c([nH]c4ccccc34)[C@@]21C (stereo partly drawn) [Compound E, methyl hydroxypaspalinate]
effect on [125I]ChTX binding [1, 3]: did not affect
IC50 [2]: > 10000 nM
strength as blocker of maxi-K channels compared with Compound C [2]: weaker
block of channel activity / effect on channel open probability [2]: no significant effect
block of channel activity ([2]; 10 μM, slowly increasing over 5-10 minutes): incomplete block

CC(C)=CC1O[C@H]2C3OC34C(=CC[C@]3(C)[C@@]5(C)c6[nH]c7cccc(CC8OC8(C)C)c7c6C[C@@H]5CC[C@@]43O)O[C@@H]2C(C)(C)O1 (stereo partly drawn) [Compound G]
inhibition at 10 µM [1]: 35%
IC50 [2]: < 0.1 nM
channels blocked ([2]; 0.1 nM): 82%
channels blocked ([2]; 1 nM): 98.6%
channel block ([2]; 10 nm): > 99%

CC1(C)ON=C2C=C3[C@H](CC[C@@]4(C)[C@@]3(O)CC[C@H]3Cc5c([nH]c6ccccc56)[C@@]34C)O[C@@H]21 [Compound F, Paxizoline]
effect on [125I]ChTX binding ([1]; concentrations above 5 μM): concentration-dependent inhibition
effect on amount of toxin bound to its receptor ([1]; range of 50 nM to 2 μM): small increase
maximum level of inhibition (saturation) ([1]; tested from 1 nM to 100 μM): ca. 32 % control
decrease in channel activity ([2]; 10 nM): ~50%
IC50 ([2]; excised inside-out patches, compound added to bath, read-out: [50% CHANNEL BLOCK]): ~10 nM

CC(C)=CCc1cccc2[nH]c3c(c12)C[C@@H]1CC[C@@]2(O)C45OC4[C@@H]4OC(C=C(C)C)OC(C)(C)[C@H]4OC5=CC[C@]2(C)[C@@]31C (stereo partly drawn) [Compound C]
inhibition at 10 µM [1]: 29%
IC50 [2]: < 10 nM
block of maxi-K channels ([2]; 10 nM): rapid and complete block
reversal of block during washout ([2]; 10 nM, brief (~10 min) washout): not reversed

CC(C)=CCOC(C)(C)[C@H]1O[C@H]2CC[C@]3(C)[C@@]4(C)c5[nH]c6ccc(CC=C(C)C)cc6c5C[C@@H]4CC[C@@]3(O)C23OC3[C@@H]1O (stereo partly drawn) [Compound B]
IC50 [2]: < 1 nM
Ki [2]: < 1 nM
block of maxi-K channels ([2]; 1 nM): nearly complete block
